Data taken from patent US20230250066A1, “HERBICIDAL CINNOLINE DERIVATIVES” (SYNGENTA CROP PROTECTION AG, priority 2020, published 2023).

Key:
Format in all cases: in vivo
[1] = tested on: Ipomoea hederacea (IPOHE); test: Pre-emergence herbicidal test; details: 1000 g/ha, evaluated after 13 days
Setaria faberi (SETFA) [2] = test: Post-emergence herbicidal test; details: 1000 g/ha unless otherwise stated, evaluated after 13 days
In short: (§1)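 Scores on a five-point scale: 5=81-100%, 4=61-80%, 3=41-60%, 2=21-40%, 1=10-20%, 0=0% damage. These are assessed 13 days after spraying at 1000 g/ha unless stated.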

[3] = tested on: Echinochloa crus-galli (ECHCG); test: Post-emergence herbicidal test; details: 1000 g/ha unless otherwise stated, evaluated after 13 days
In short: as §1

[4] = tested on: Amaranthus retoflexus (AMARE); test: Post-emergence herbicidal test; details: 1000 g/ha unless otherwise stated, evaluated after 13 days
In short: as §1

Zea mays (ZEAMX) [5] = test: Post-emergence herbicidal test; details: 1000 g/ha unless otherwise stated, evaluated after 13 days
In short: as §1

[6] = tested on: Ipomoea hederacea (IPOHE); test: Post-emergence herbicidal test; details: 1000 g/ha unless otherwise stated, evaluated after 13 days
In short: as §1

[7] = tested on: Abutilon theophrasti (ABUTH); test: Post-emergence herbicidal test; details: 1000 g/ha unless otherwise stated, evaluated after 13 days
In short: as §1

[8] = tested on: Abutilon theophrasti (ABUTH); test: Pre-emergence herbicidal test; details: 1000 g/ha, evaluated after 13 days
[9] = tested on: Amaranthus retoflexus (AMARE); test: Pre-emergence herbicidal test; details: 1000 g/ha, evaluated after 13 days
Setaria faberi (SETFA) [10] = test: Pre-emergence herbicidal test; details: 1000 g/ha, evaluated after 13 days
Zea mays (ZEAMX) [11] = test: Pre-emergence herbicidal test; details: 1000 g/ha, evaluated after 13 days
[12] = tested on: Echinochloa crus-galli (ECHCG); test: Pre-emergence herbicidal test; details: 1000 g/ha, evaluated after 13 days

O=C(O)c1nn(-c2ccc(OC(F)(F)F)cc2)c2cccc(S(=O)(=O)CC(F)(F)F)c2c1=O [Compound P35, 4-oxo-5-(2,2,2-trifluoroethylsulfonyl)-1-[4-(trifluoromethoxy)phenyl]cinnoline-3-carboxylic acid]
percentage damage caused to the plant, five-point scale, IPOHE [1]: 0 (0=0%) | percentage damage caused to the plant, SETFA (five-point scale) (Setaria faberi (SETFA) [2]): 2 (2=21-40%) | percentage damage caused to the plant, ECHCG (five-point scale) [3]: 1 (1=10-20%) | percentage damage caused to the plant, AMARE (five-point scale) [4]: 1 (1=10-20%) | percentage damage caused to the plant, ZEAMX (five-point scale) (Zea mays (ZEAMX) [5]): 1 (1=10-20%) | percentage damage caused to the plant, IPOHE (five-point scale) [6]: 0 (0=0%) | percentage damage caused to the plant, ABUTH (five-point scale) [7]: 1 (1=10-20%) | percentage damage caused to the plant, five-point scale, ABUTH [8]: 1 (1=10-20%) | percentage damage caused to the plant, five-point scale, AMARE [9]: 0 (0=0%) | percentage damage caused to the plant, five-point scale, SETFA (Setaria faberi (SETFA) [10]): 0 (0=0%) | percentage damage caused to the plant, five-point scale, ZEAMX (Zea mays (ZEAMX) [11]): 1 (1=10-20%) | percentage damage caused to the plant, five-point scale, ECHCG [12]: 0 (0=0%)

O=C(O)c1nn(-c2ccc(OC(F)(F)F)cc2)c2cccc([S+]([O-])CC(F)(F)F)c2c1=O (stereo not drawn) [Compound P37, 4-oxo-5-(2,2,2-trifluoroethylsulfinyl)-1-[4-(trifluoromethoxy)phenyl]cinnoline-3-carboxylic acid]
percentage damage caused to the plant, five-point scale, IPOHE [1]: 0 (0=0%) | percentage damage caused to the plant, SETFA (five-point scale) (Setaria faberi (SETFA) [2]): 1 (1=10-20%) | percentage damage caused to the plant, ECHCG (five-point scale) [3]: 1 (1=10-20%) | percentage damage caused to the plant, AMARE (five-point scale) [4]: 0 (0=0%) | percentage damage caused to the plant, ZEAMX (five-point scale) (Zea mays (ZEAMX) [5]): 1 (1=10-20%) | percentage damage caused to the plant, IPOHE (five-point scale) [6]: 1 (1=10-20%) | percentage damage caused to the plant, ABUTH (five-point scale) [7]: 1 (1=10-20%) | percentage damage caused to the plant, five-point scale, ABUTH [8]: 1 (1=10-20%) | percentage damage caused to the plant, five-point scale, AMARE [9]: 0 (0=0%) | percentage damage caused to the plant, five-point scale, SETFA (Setaria faberi (SETFA) [10]): 0 (0=0%) | percentage damage caused to the plant, five-point scale, ZEAMX (Zea mays (ZEAMX) [11]): 0 (0=0%) | percentage damage caused to the plant, five-point scale, ECHCG [12]: 0 (0=0%)

CCOC(=O)c1nn(-c2ccc(OC(F)(F)F)cc2)c2cccc([S+]([O-])CC(F)(F)F)c2c1=O (stereo not drawn) [Compound P38, ethyl 4-oxo-5-(2,2,2-trifluoroethylsulfinyl)-1-[4-(trifluoromethoxy)phenyl]cinnoline-3-carboxylate]
percentage damage caused to the plant, five-point scale, IPOHE [1]: 0 (0=0%) | percentage damage caused to the plant, SETFA (five-point scale) (Setaria faberi (SETFA) [2]): 1 (1=10-20%) | percentage damage caused to the plant, ECHCG (five-point scale) [3]: 0 (0=0%) | percentage damage caused to the plant, AMARE (five-point scale) [4]: 1 (1=10-20%) | percentage damage caused to the plant, ZEAMX (five-point scale) (Zea mays (ZEAMX) [5]): 1 (1=10-20%) | percentage damage caused to the plant, IPOHE (five-point scale) [6]: 0 (0=0%) | percentage damage caused to the plant, ABUTH (five-point scale) [7]: 1 (1=10-20%) | percentage damage caused to the plant, five-point scale, ABUTH [8]: 0 (0=0%) | percentage damage caused to the plant, five-point scale, AMARE [9]: 0 (0=0%) | percentage damage caused to the plant, five-point scale, SETFA (Setaria faberi (SETFA) [10]): 0 (0=0%) | percentage damage caused to the plant, five-point scale, ZEAMX (Zea mays (ZEAMX) [11]): 0 (0=0%) | percentage damage caused to the plant, five-point scale, ECHCG [12]: 0 (0=0%)

CCOC(=O)c1nn(-c2ccc(OC(F)(F)F)cc2)c2cccc(SCC(F)(F)F)c2c1=O [Compound P39, ethyl 4-oxo-5-(2,2,2-trifluoroethylsulfanyl)-1-[4-(trifluoromethoxy)phenyl]cinnoline-3-carboxylate]
percentage damage caused to the plant, five-point scale, IPOHE [1]: 0 (0=0%) | percentage damage caused to the plant, SETFA (five-point scale) (Setaria faberi (SETFA) [2]): 0 (0=0%) | percentage damage caused to the plant, ECHCG (five-point scale) [3]: 0 (0=0%) | percentage damage caused to the plant, AMARE (five-point scale) [4]: 0 (0=0%) | percentage damage caused to the plant, ZEAMX (five-point scale) (Zea mays (ZEAMX) [5]): 1 (1=10-20%) | percentage damage caused to the plant, IPOHE (five-point scale) [6]: 1 (1=10-20%) | percentage damage caused to the plant, ABUTH (five-point scale) [7]: 1 (1=10-20%) | percentage damage caused to the plant, five-point scale, ABUTH [8]: 0 (0=0%) | percentage damage caused to the plant, five-point scale, AMARE [9]: 1 (1=10-20%) | percentage damage caused to the plant, five-point scale, SETFA (Setaria faberi (SETFA) [10]): 0 (0=0%) | percentage damage caused to the plant, five-point scale, ZEAMX (Zea mays (ZEAMX) [11]): 0 (0=0%) | percentage damage caused to the plant, five-point scale, ECHCG [12]: 0 (0=0%)

CCOC(=O)c1nn(-c2ccc(OC(F)(F)F)cc2)c2cccc(S(=O)(=O)CC(F)(F)F)c2c1=O [Compound P40, ethyl 4-oxo-5-(2,2,2-trifluoroethylsulfonyl)-1-[4-(trifluoromethoxy)phenyl]cinnoline-3-carboxylate]
percentage damage caused to the plant, five-point scale, IPOHE [1]: 0 (0=0%) | percentage damage caused to the plant, SETFA (five-point scale) (Setaria faberi (SETFA) [2]): 1 (1=10-20%) | percentage damage caused to the plant, ECHCG (five-point scale) [3]: 1 (1=10-20%) | percentage damage caused to the plant, AMARE (five-point scale) [4]: 1 (1=10-20%) | percentage damage caused to the plant, ZEAMX (five-point scale) (Zea mays (ZEAMX) [5]): 1 (1=10-20%) | percentage damage caused to the plant, IPOHE (five-point scale) [6]: 0 (0=0%) | percentage damage caused to the plant, ABUTH (five-point scale) [7]: 1 (1=10-20%) | percentage damage caused to the plant, five-point scale, ABUTH [8]: 1 (1=10-20%) | percentage damage caused to the plant, five-point scale, AMARE [9]: 0 (0=0%) | percentage damage caused to the plant, five-point scale, SETFA (Setaria faberi (SETFA) [10]): 1 (1=10-20%) | percentage damage caused to the plant, five-point scale, ZEAMX (Zea mays (ZEAMX) [11]): 1 (1=10-20%) | percentage damage caused to the plant, five-point scale, ECHCG [12]: 0 (0=0%)

CS(=O)(=O)c1cccc2c1c(=O)c(C(=O)O)nn2-c1ccc(Cl)cc1F [Compound P41, 1-(4-chloro-2-fluoro-phenyl)-5-methylsulfonyl-4-oxo-cinnoline-3-carboxylic acid]
percentage damage caused to the plant, five-point scale, IPOHE [1]: 1 (1=10-20%) | percentage damage caused to the plant, SETFA (five-point scale) (Setaria faberi (SETFA) [2]): 4 (4=61-80%) | percentage damage caused to the plant, ECHCG (five-point scale) [3]: 4 (4=61-80%) | percentage damage caused to the plant, AMARE (five-point scale) [4]: 1 (1=10-20%) | percentage damage caused to the plant, ZEAMX (five-point scale) (Zea mays (ZEAMX) [5]): 1 (1=10-20%) | percentage damage caused to the plant, IPOHE (five-point scale) [6]: 1 (1=10-20%) | percentage damage caused to the plant, ABUTH (five-point scale) [7]: 1 (1=10-20%) | percentage damage caused to the plant, five-point scale, ABUTH [8]: 1 (1=10-20%) | percentage damage caused to the plant, five-point scale, AMARE [9]: 1 (1=10-20%) | percentage damage caused to the plant, five-point scale, SETFA (Setaria faberi (SETFA) [10]): 4 (4=61-80%) | percentage damage caused to the plant, five-point scale, ZEAMX (Zea mays (ZEAMX) [11]): 1 (1=10-20%) | percentage damage caused to the plant, five-point scale, ECHCG [12]: 2 (2=21-40%)

CCOC(=O)c1nn(-c2ccc(Cl)cc2F)c2cccc(S(C)(=O)=O)c2c1=O [Compound P42, ethyl 1-(4-chloro-2-fluoro-phenyl)-5-methylsulfonyl-4-oxo-cinnoline-3-carboxylate]
percentage damage caused to the plant, five-point scale, IPOHE [1]: 1 (1=10-20%) | percentage damage caused to the plant, SETFA (five-point scale) (Setaria faberi (SETFA) [2]): 4 (4=61-80%) | percentage damage caused to the plant, ECHCG (five-point scale) [3]: 4 (4=61-80%) | percentage damage caused to the plant, AMARE (five-point scale) [4]: 1 (1=10-20%) | percentage damage caused to the plant, ZEAMX (five-point scale) (Zea mays (ZEAMX) [5]): 1 (1=10-20%) | percentage damage caused to the plant, IPOHE (five-point scale) [6]: 1 (1=10-20%) | percentage damage caused to the plant, ABUTH (five-point scale) [7]: 1 (1=10-20%) | percentage damage caused to the plant, five-point scale, ABUTH [8]: 1 (1=10-20%) | percentage damage caused to the plant, five-point scale, AMARE [9]: 0 (0=0%) | percentage damage caused to the plant, five-point scale, SETFA (Setaria faberi (SETFA) [10]): 4 (4=61-80%) | percentage damage caused to the plant, five-point scale, ZEAMX (Zea mays (ZEAMX) [11]): 0 (0=0%) | percentage damage caused to the plant, five-point scale, ECHCG [12]: 3 (3=41-60%)

CS(=O)(=O)c1cccc2c1c(=O)c(C(=O)O)nn2-c1ccc(Cl)cc1Cl [Compound P43, 1-(2,4-dichlorophenyl)-5-methylsulfonyl-4-oxo-cinnoline-3-carboxylic acid]
percentage damage caused to the plant, five-point scale, IPOHE [1]: 1 (1=10-20%) | percentage damage caused to the plant, SETFA (five-point scale) (Setaria faberi (SETFA) [2]): 4 (4=61-80%) | percentage damage caused to the plant, ECHCG (five-point scale) [3]: 3 (3=41-60%) | percentage damage caused to the plant, AMARE (five-point scale) [4]: 1 (1=10-20%) | percentage damage caused to the plant, ZEAMX (five-point scale) (Zea mays (ZEAMX) [5]): 1 (1=10-20%) | percentage damage caused to the plant, IPOHE (five-point scale) [6]: 1 (1=10-20%) | percentage damage caused to the plant, ABUTH (five-point scale) [7]: 2 (2=21-40%) | percentage damage caused to the plant, five-point scale, ABUTH [8]: 0 (0=0%) | percentage damage caused to the plant, five-point scale, AMARE [9]: 0 (0=0%) | percentage damage caused to the plant, five-point scale, SETFA (Setaria faberi (SETFA) [10]): 4 (4=61-80%) | percentage damage caused to the plant, five-point scale, ZEAMX (Zea mays (ZEAMX) [11]): 0 (0=0%) | percentage damage caused to the plant, five-point scale, ECHCG [12]: 2 (2=21-40%)

CCOC(=O)c1nn(-c2ccc(Cl)cc2Cl)c2cccc(S(C)(=O)=O)c2c1=O [Compound P44, ethyl 1-(2,4-dichlorophenyl)-5-methylsulfonyl-4-oxo-cinnoline-3-carboxylate]
percentage damage caused to the plant, five-point scale, IPOHE [1]: 0 (0=0%) | percentage damage caused to the plant, SETFA (five-point scale) (Setaria faberi (SETFA) [2]): 4 (4=61-80%) | percentage damage caused to the plant, ECHCG (five-point scale) [3]: 4 (4=61-80%) | percentage damage caused to the plant, AMARE (five-point scale) [4]: 1 (1=10-20%) | percentage damage caused to the plant, ZEAMX (five-point scale) (Zea mays (ZEAMX) [5]): 1 (1=10-20%) | percentage damage caused to the plant, IPOHE (five-point scale) [6]: 1 (1=10-20%) | percentage damage caused to the plant, ABUTH (five-point scale) [7]: 1 (1=10-20%) | percentage damage caused to the plant, five-point scale, ABUTH [8]: 0 (0=0%) | percentage damage caused to the plant, five-point scale, AMARE [9]: 1 (1=10-20%) | percentage damage caused to the plant, five-point scale, SETFA (Setaria faberi (SETFA) [10]): 4 (4=61-80%) | percentage damage caused to the plant, five-point scale, ZEAMX (Zea mays (ZEAMX) [11]): 0 (0=0%) | percentage damage caused to the plant, five-point scale, ECHCG [12]: 2 (2=21-40%)
